Patent publication US20230257367A1, “NOVEL THYROID HORMONE BETA RECEPTOR AGONIST” (Chengdu Kanghong Pharmaceutical Co., Ltd., priority 2020, published 2023)

Columns and labels:
TRβ-LBD/RXRα = molecular target: T1, TRβ-LBD/RXRα (Homo sapiens, UniProt P10828); test: In vitro binding experiment (TR-FRET SRC2-2 co-activator peptide recruitment), TRβ; format: biochemical; conditions: 4 h incubation at room temperature
T1 construct: TRβ-LBD (Invitrogen, PV4764) with a GST tag were used; purchased Invitrogen (TRβ-LBD); Pharmaron (RXRα) PV4764
T1 sequence (P19793 whole entry partner, other chains not shown, the tested form may be a part): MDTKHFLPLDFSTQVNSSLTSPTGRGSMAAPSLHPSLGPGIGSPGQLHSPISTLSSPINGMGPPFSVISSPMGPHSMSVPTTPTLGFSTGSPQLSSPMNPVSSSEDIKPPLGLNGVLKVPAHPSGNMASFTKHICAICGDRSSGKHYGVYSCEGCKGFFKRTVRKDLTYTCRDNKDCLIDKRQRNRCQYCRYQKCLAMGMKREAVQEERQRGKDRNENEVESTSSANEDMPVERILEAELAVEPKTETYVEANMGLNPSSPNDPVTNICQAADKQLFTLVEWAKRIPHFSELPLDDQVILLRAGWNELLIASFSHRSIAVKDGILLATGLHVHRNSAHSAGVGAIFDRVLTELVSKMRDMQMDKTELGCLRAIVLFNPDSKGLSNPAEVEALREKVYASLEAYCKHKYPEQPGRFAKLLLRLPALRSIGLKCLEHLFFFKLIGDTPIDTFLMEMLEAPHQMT

TRα-LBD/RXRα = molecular target: T2, TRα-LBD/RXRα (Homo sapiens, UniProt P10827); test: In vitro binding experiment (TR-FRET SRC2-2 co-activator peptide recruitment), TRα; format: biochemical; conditions: 4 h incubation at room temperature
T2 construct: TRα-LBD (Invitrogen, PV4762), or TRβ-LBD (Invitrogen, PV4764) with a GST tag were used; purchased Invitrogen (TRα-LBD); Pharmaron (RXRα) PV4762
T2 sequence (P19793 whole entry partner, other chains not shown, the tested form may be a part): as above

TRβ = molecular target: T3, TRβ (Homo sapiens, UniProt P10828); test: In vitro TRβ cell transfection experiment (GAL4 luciferase reporter, HEK293T); format: cell-based
T3 construct: host or cells: HEK293T
T3 sequence (P10828 217-461 limits assumed): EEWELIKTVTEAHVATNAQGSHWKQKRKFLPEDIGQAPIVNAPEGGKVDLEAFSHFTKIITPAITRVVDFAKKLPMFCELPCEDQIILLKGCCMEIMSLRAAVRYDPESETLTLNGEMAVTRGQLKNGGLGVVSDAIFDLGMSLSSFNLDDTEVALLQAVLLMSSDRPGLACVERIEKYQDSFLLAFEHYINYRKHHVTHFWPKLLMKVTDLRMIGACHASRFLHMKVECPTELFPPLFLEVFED
T3 sequence (P19793 227-458 partner limits assumed): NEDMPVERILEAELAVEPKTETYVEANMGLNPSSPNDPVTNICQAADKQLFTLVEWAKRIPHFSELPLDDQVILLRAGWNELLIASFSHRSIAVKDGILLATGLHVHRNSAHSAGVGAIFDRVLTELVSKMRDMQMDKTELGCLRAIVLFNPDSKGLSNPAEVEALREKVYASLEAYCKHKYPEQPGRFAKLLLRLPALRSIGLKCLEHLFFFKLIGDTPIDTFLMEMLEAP

TRα = molecular target: T4, TRα (Homo sapiens, UniProt P10827); test: In vitro TRα cell transfection experiment (GAL4 luciferase reporter, HEK293T); format: cell-based
T4 construct: host or cells: HEK293T
T4 sequence (P10827 1-410 isoform P10827-2): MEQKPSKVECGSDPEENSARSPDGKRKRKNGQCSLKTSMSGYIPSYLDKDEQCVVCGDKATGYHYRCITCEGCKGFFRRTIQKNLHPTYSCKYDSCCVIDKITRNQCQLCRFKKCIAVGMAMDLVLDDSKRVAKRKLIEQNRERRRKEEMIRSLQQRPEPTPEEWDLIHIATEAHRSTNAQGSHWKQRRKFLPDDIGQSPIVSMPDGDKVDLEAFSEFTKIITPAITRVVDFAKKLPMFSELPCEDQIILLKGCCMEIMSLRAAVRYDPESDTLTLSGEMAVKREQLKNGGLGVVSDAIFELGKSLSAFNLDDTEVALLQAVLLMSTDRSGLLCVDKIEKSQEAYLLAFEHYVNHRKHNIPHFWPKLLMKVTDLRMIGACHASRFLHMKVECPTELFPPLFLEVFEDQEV
T4 sequence (P19793 227-458 partner limits assumed): T3 sequence (P19793 227-458 partner limits assumed)

SMILES | EC50 (TRβ-LBD/RXRα) [µM] | EC50 (TRα-LBD/RXRα) [µM] | EC50 (TRβ) [µM] | EC50 (TRα) [µM]
CC(C)c1nc(Oc2c(Cl)cc(NCP(=O)(O)O)cc2Cl)ncc1O [KH02] | 1.06 |  |  | 
CC(C)c1nc(Oc2c(Cl)cc(NCC(=O)O)cc2Cl)ncc1O [KH04] | 0.113 | 0.133 | 1.28 | 2.49
CC(C)c1nc(Oc2c(Cl)cc(-n3nc(C#N)c(=O)[nH]c3=O)c3c2CCO3)ncc1O [KH07] | 0.048 | 0.31 | 0.208 | 0.964
N#Cc1nn(-c2cc(Cl)c(Oc3ncc(O)c(Cc4ccccc4)n3)c(Cl)c2)c(=O)[nH]c1=O [KH09] | 0.066 | 1.88 |  | 
CC(C)c1nc(Oc2c(Cl)cc(-n3nc(C#N)c(=O)[nH]c3=O)c3c2CCC3)ncc1O [KH13] | 0.054 | 0.132 | 1.13 | 2.74
CC(C)c1nc(Oc2c(Cl)cc(-n3ncc(=O)[nH]c3=O)c3c2CCC3)ncc1O [KH14] | 0.105 | 0.102 | 0.148 | 0.383
[2H]C([2H])([2H])C(c1nc(Oc2c(Cl)cc(-n3nc(C#N)c(=O)[nH]c3=O)cc2Cl)ncc1O)C([2H])([2H])[2H] [KH15] | 0.014 | 0.194 | 0.205 | 1.46
[2H]C([2H])([2H])C(c1nc(Oc2c(Cl)cc(-n3ncc(=O)[nH]c3=O)cc2Cl)ncc1O)C([2H])([2H])[2H] [KH16] | 0.012 | 0.106 | 0.019 | 0.138
CC(C)c1nc(Sc2c(Cl)cc(-n3nc(C#N)c(=O)[nH]c3=O)cc2Cl)ncc1O [KH17] | 0.021 | 0.385 |  | 
CC(C)c1nc(Sc2c(Cl)cc(-n3ncc(=O)[nH]c3=O)cc2Cl)ncc1O [KH18] | 0.011 | 0.188 | 0.007 | 0.028

Now from value to compound:

EC50 (TRβ-LBD/RXRα) [µM] | EC50 (TRα-LBD/RXRα) [µM] | EC50 (TRβ) [µM] | EC50 (TRα) [µM] | SMILES
0.007 | 0.418 | 0.258 | 0.563 | N#Cc1nn(-c2cc(Cl)c(Oc3ncc(O)c(Cc4ccc(F)cc4)n3)c(Cl)c2)c(=O)[nH]c1=O [KHE001]
0.003 | 0.272 | 0.004 | 0.039 | O=c1cnn(-c2cc(Cl)c(Oc3ncc(O)c(Cc4ccc(F)cc4)n3)c(Cl)c2)c(=O)[nH]1 [KHE002]
0.746 | 0.573 |  |  | CC(C)c1nc(Oc2c(Cl)cc(-c3noc(=O)[nH]3)cc2Cl)ncc1O [KHE003]
0.089 | 5.12 | 0.227 | 0.528 | N#Cc1nn(-c2cc(Cl)c(Oc3ncc(O)c(CC4CCCCC4)n3)c(Cl)c2)c(=O)[nH]c1=O [KHE007]
0.067 | 4.54 | 0.008 | 0.049 | O=c1cnn(-c2cc(Cl)c(Oc3ncc(O)c(CC4CCCCC4)n3)c(Cl)c2)c(=O)[nH]1 [KHE008]
0.04 | 0.258 | 0.074 | 0.507 | CCC(CC)c1nc(Oc2c(Cl)cc(-n3nc(C#N)c(=O)[nH]c3=O)cc2Cl)ncc1O [KHE009]
0.029 | 0.22 |  |  | CCC(CC)c1nc(Oc2c(Cl)cc(-n3ncc(=O)[nH]c3=O)cc2Cl)ncc1O [KHE010]
0.077 | 0.737 | 0.88 | 3.31 | N#Cc1nn(-c2cc(Cl)c(Oc3ncc(O)c(C4CC4)n3)c(Cl)c2)c(=O)[nH]c1=O [KHE017]
0.04 | 0.346 | 0.102 | 0.407 | O=c1cnn(-c2cc(Cl)c(Oc3ncc(O)c(C4CC4)n3)c(Cl)c2)c(=O)[nH]1 [KHE018]
0.254 | 2.38 |  |  | N#Cc1nn(-c2cc(Cl)c(Oc3ncc(O)c(C4CC(F)(F)C4)n3)c(Cl)c2)c(=O)[nH]c1=O [KHE019]
0.001 | 0.008 | 0.5 | 1.17 | CC(C)c1nc(Oc2c(Cl)cc(NC(=O)C(=O)O)cc2Cl)ncc1O [KHE021]
